Experimental data as given in patent publication US7235687B2, “Derivatives of 4,4′-dithiobis-(3-aminobutane-1-sulfphonates) and compositions containing same” (Institut National de la Sante et de la Recherche Medicale …, priority 2002, dated 2007).

Tested on: Deoxycorticosterone acetate (DOCA)-salt hypertensive rats
Assay: Effect on blood pressure in DOCA-salt hypertensive rats
Type: in vivo, rat
Conditions: DOCA-salt hypertensive male Wistar Kyoto rats; oral gavage in water at 15 mg/kg; 4.5 hours after administration
Method: Deoxycorticosterone acetate (DOCA)-salt hypertensive rats were obtained according to Pham, I. et al (1993) J. Pharmacol. Exp. Ther. 265, 1339–1347 with the following modifications: under pentobarbital anaesthesia, unilateral nephrectomy was performed in male Wistar Kyoto rats (300 g) and a pellet of 50 mg of DOCA was implanted s.c. After surgery, the rats were fed on standard rat chow and the drinking water was supplemented with 0.9% NaCl and 0.2% KCl. Hypertension developed 3 weeks after surgery.
To record arterial blood pressure, DOCA-salt rats were anaesthetized with pentobarbital sodium (50 mg/kg i.p., Sentravet laboratory, Plancoët, France), a femoral artery catheter (PE50) filled with heparinized saline (250 U/ml) was inserted, then brought under the skin and emerged at the nape of the neck. A flexible metal spring was attached to the skull and neck of the rat and connected to dual channel swivels mounted directly above the cage. This arrangement allowed the rat free movement inside the cage. […] Mean arterial BP was continuously recorded throughout each experiment using a COBE CDX III pressure transducer (Phymep, Paris, France) connected to the MacLab system (Phymep, Paris, France) composed of a MacLab technology unit and Chart software running on a Macintosh computer. […]

In the case of `Cl.Cl.NC(CCS(=O)(=O)[O-])CSSCC(N)CCS(=O)(=O)[O-].[Na+].[Na+]` (stereo not shown) [Example 1, 4,4′ dithiobis (sodium 3-aminobutane-1-sulfonate) bis chlorohydrate], the “decrease of mean arterial blood pressure” value is reported as 3680 Pa.
